According to patent US20240293400A1, “NOVEL AZAINDOLE DERIVATIVES AS ANTIVIRAL AGENTS” (Centre National de la Recherche Scientifique, priority 2021, published 2024):

Columns and labels:
Test in all cases: Kinase panel Z'-LYTE/Adapta SelectScreen
Format in all cases: biochemical
Details in all cases: 100 nM in 1% DMSO
NTRK2 (TRKB) = NTRK2 (TRKB) (Homo sapiens (Human), UniProt Q16620)
Method: (§1) The inhibitory activity of the compounds on a panel of kinases including, inter alia, AXL and FLT3 was evaluated by Thermo Fisher Scientific using Z′-LYTE® and Adapta® Select Screen technology.
(§2) The fluorescence-based biochemical test uses coupled enzymes and is based on the difference in sensitivity of the phosphorylated and non-phosphorylated peptides to proteolytic cleavage. The peptide substrate is labeled with 2 fluorophores—one at each end—allowing fluorescence transfer (FRET).
(§3) Compounds 1, 2 and 3 are tested in wells at the final concentration of 100 nM in 1% DMSO.

SYK = SYK (Homo sapiens (Human), UniProt P43405)
Method: as §1, §2, §3

CHUK (IKKalpha) = CHUK (IKKalpha) (Homo sapiens (Human), UniProt O15111)
Method: as §1, §2, §3

LCK = LCK (Homo sapiens (Human), UniProt P06239)
Method: as §1, §2, §3

JAK3 = JAK3 (Homo sapiens (Human), UniProt P52333)
Method: as §1, §2, §3

KIT = KIT (Homo sapiens (Human), UniProt P10721)
Method: as §1, §2, §3

JAK2 = JAK2 (Homo sapiens (Human), UniProt O60674)
Method: as §1, §2, §3

PTK2 (FAK) = PTK2 (FAK) (Homo sapiens (Human), UniProt Q05397)
Method: as §1, §2, §3

AURKA (Aurora A) = AURKA (Aurora A) (Homo sapiens (Human), UniProt O14965)
Method: as §1, §2, §3

AURKB (Aurora B) = AURKB (Aurora B) (Homo sapiens (Human), UniProt Q96GD4)
Method: as §1, §2, §3

TYK2 = TYK2 (Homo sapiens (Human), UniProt P29597)
Method: as §1, §2, §3

ROS1 = ROS1 (Homo sapiens (Human), UniProt P08922)
Method: as §1, §2, §3

PDGFRB (PDGFR beta) = PDGFRB (PDGFR beta) (Homo sapiens (Human), UniProt P09619)
Method: as §1, §2, §3

PDGFRA (PDGFR alpha) = PDGFRA (PDGFR alpha) (Homo sapiens (Human), UniProt P16234)
Method: as §1, §2, §3

NTRK1 (TRKA) = NTRK1 (TRKA) (Homo sapiens (Human), UniProt P04629)
Method: as §1, §2, §3

BTK = BTK (Homo sapiens (Human), UniProt Q06187)
Method: as §1, §2, §3

PRKAA (PKA) = PRKAA (PKA) (Homo sapiens (Human), UniProt P17612)
Method: as §1, §2, §3

PLK1 = PLK1 (Homo sapiens (Human), UniProt P53350)
Method: as §1, §2, §3

SRC = SRC (Homo sapiens (Human), UniProt P12931)
Method: as §1, §2, §3

CSK = CSK (Homo sapiens (Human), UniProt P41240)
Method: as §1, §2, §3

FLT1 (VEGFR1) = FLT1 (VEGFR1) (Homo sapiens (Human), UniProt P17948)
Method: as §1, §2, §3

ALK = ALK (Homo sapiens (Human), UniProt Q9UM73)
Method: as §1, §2, §3

FGFR2 = FGFR2 (Homo sapiens (Human), UniProt P21802)
Method: as §1, §2, §3

ABL1 = ABL1 (Homo sapiens (Human), UniProt P00519)
Method: as §1, §2, §3

FLT4 (VEGFR3) = FLT4 (VEGFR3) (Homo sapiens (Human), UniProt P35916)
Method: as §1, §2, §3

TEK (Tie2) = TEK (Tie2) (Homo sapiens (Human), UniProt Q02763)
Method: as §1, §2, §3

ZAP70 = ZAP70 (Homo sapiens (Human), UniProt P43403)
Method: as §1, §2, §3

MET (cMet) = MET (cMet) (Homo sapiens (Human), UniProt P08581)
Method: as §1, §2, §3

TYRO3 (RSE) = TYRO3 (RSE) (Homo sapiens (Human), UniProt Q06418)
Method: as §1, §2, §3

CSF1R (FMS) = CSF1R (FMS) (Homo sapiens (Human), UniProt P07333)
Method: as §1, §2, §3

YES1 = YES1 (Homo sapiens (Human), UniProt P07947)
Method: as §1, §2, §3

ROCK2 = ROCK2 (Homo sapiens (Human), UniProt O75116)
Method: as §1, §2, §3

MERTK (cMER) = MERTK (cMER) (Homo sapiens (Human), UniProt Q12866)
Method: as §1, §2, §3

NUK1 (ARK5) = NUK1 (ARK5) (Homo sapiens (Human), UniProt O60285)
Method: as §1, §2, §3

RET = RET (Homo sapiens (Human), UniProt P07949)
Method: as §1, §2, §3

KDR (VEGFR2) = KDR (VEGFR2) (Homo sapiens (Human), UniProt P35968)
Method: as §1, §2, §3

Sequence of KIT (P10721 26-976): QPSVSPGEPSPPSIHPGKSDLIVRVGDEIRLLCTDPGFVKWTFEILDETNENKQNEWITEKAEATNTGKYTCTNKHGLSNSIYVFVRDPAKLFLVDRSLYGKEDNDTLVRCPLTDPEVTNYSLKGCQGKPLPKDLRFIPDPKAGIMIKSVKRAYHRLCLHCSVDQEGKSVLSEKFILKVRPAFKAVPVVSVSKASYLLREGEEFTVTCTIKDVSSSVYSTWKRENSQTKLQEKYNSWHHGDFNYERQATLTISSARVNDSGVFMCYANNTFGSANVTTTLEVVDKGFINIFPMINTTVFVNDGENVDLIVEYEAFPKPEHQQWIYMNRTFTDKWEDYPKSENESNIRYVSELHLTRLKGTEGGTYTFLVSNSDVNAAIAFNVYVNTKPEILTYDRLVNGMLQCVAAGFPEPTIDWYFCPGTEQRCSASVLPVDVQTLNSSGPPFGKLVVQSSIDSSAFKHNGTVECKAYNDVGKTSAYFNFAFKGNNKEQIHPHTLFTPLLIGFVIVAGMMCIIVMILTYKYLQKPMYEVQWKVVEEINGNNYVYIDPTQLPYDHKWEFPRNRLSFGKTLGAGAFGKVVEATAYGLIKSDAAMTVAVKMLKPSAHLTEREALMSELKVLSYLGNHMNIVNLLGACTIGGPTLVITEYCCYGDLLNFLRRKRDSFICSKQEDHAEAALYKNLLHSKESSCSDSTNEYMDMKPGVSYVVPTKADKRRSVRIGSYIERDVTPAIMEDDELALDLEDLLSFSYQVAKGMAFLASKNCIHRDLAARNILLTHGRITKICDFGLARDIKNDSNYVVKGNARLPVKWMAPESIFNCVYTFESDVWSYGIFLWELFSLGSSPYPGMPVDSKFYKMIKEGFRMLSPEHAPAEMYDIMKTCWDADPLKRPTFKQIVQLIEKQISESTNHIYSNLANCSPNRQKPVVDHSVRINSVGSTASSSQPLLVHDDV
Sequence of AURKA (Aurora A) (O14965 whole entry): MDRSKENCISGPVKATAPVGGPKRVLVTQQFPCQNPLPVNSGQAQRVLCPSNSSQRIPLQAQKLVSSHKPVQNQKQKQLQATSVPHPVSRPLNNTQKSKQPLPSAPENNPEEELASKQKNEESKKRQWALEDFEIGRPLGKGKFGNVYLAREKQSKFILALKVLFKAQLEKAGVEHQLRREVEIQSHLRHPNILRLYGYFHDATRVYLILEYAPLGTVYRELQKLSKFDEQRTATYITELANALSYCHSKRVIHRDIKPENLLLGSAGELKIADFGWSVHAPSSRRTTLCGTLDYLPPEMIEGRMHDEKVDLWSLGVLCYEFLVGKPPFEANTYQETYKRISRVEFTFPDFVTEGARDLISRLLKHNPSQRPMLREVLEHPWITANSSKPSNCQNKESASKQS
Sequence of FLT4 (VEGFR3) (P35916 25-1363): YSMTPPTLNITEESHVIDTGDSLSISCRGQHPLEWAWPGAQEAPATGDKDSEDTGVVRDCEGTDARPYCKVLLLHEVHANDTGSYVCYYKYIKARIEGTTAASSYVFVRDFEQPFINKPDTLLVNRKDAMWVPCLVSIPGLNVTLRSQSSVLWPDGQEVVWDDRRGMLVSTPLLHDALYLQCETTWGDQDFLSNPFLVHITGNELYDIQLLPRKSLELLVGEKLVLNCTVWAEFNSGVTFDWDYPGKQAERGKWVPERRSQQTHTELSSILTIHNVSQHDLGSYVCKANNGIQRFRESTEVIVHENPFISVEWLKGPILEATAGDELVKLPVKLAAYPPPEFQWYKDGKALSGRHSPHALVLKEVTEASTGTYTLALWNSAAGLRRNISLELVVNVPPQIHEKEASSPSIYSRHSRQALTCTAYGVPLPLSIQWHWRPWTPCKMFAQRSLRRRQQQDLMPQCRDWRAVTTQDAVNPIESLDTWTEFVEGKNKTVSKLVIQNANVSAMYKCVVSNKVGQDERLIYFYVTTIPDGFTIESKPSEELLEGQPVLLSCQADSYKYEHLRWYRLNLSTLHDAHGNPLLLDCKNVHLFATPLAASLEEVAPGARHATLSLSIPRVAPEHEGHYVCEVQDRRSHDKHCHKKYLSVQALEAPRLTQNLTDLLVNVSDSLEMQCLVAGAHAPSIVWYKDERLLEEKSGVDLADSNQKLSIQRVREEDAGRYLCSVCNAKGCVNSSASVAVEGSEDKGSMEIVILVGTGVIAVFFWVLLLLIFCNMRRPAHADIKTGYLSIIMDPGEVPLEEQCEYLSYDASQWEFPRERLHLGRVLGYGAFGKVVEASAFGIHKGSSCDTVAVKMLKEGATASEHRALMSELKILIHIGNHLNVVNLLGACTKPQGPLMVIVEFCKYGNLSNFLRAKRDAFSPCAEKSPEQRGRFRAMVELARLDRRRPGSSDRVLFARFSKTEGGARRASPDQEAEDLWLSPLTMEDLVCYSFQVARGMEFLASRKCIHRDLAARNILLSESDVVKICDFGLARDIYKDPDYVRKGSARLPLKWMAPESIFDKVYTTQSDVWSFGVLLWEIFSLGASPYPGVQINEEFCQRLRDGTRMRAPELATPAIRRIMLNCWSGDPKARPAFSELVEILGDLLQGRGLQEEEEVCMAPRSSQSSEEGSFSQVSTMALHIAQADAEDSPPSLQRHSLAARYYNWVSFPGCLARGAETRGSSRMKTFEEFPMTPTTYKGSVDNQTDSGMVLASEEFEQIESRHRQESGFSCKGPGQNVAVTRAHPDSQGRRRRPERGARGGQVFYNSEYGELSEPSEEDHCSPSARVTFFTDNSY
Sequence of ROS1 (P08922 28-2347): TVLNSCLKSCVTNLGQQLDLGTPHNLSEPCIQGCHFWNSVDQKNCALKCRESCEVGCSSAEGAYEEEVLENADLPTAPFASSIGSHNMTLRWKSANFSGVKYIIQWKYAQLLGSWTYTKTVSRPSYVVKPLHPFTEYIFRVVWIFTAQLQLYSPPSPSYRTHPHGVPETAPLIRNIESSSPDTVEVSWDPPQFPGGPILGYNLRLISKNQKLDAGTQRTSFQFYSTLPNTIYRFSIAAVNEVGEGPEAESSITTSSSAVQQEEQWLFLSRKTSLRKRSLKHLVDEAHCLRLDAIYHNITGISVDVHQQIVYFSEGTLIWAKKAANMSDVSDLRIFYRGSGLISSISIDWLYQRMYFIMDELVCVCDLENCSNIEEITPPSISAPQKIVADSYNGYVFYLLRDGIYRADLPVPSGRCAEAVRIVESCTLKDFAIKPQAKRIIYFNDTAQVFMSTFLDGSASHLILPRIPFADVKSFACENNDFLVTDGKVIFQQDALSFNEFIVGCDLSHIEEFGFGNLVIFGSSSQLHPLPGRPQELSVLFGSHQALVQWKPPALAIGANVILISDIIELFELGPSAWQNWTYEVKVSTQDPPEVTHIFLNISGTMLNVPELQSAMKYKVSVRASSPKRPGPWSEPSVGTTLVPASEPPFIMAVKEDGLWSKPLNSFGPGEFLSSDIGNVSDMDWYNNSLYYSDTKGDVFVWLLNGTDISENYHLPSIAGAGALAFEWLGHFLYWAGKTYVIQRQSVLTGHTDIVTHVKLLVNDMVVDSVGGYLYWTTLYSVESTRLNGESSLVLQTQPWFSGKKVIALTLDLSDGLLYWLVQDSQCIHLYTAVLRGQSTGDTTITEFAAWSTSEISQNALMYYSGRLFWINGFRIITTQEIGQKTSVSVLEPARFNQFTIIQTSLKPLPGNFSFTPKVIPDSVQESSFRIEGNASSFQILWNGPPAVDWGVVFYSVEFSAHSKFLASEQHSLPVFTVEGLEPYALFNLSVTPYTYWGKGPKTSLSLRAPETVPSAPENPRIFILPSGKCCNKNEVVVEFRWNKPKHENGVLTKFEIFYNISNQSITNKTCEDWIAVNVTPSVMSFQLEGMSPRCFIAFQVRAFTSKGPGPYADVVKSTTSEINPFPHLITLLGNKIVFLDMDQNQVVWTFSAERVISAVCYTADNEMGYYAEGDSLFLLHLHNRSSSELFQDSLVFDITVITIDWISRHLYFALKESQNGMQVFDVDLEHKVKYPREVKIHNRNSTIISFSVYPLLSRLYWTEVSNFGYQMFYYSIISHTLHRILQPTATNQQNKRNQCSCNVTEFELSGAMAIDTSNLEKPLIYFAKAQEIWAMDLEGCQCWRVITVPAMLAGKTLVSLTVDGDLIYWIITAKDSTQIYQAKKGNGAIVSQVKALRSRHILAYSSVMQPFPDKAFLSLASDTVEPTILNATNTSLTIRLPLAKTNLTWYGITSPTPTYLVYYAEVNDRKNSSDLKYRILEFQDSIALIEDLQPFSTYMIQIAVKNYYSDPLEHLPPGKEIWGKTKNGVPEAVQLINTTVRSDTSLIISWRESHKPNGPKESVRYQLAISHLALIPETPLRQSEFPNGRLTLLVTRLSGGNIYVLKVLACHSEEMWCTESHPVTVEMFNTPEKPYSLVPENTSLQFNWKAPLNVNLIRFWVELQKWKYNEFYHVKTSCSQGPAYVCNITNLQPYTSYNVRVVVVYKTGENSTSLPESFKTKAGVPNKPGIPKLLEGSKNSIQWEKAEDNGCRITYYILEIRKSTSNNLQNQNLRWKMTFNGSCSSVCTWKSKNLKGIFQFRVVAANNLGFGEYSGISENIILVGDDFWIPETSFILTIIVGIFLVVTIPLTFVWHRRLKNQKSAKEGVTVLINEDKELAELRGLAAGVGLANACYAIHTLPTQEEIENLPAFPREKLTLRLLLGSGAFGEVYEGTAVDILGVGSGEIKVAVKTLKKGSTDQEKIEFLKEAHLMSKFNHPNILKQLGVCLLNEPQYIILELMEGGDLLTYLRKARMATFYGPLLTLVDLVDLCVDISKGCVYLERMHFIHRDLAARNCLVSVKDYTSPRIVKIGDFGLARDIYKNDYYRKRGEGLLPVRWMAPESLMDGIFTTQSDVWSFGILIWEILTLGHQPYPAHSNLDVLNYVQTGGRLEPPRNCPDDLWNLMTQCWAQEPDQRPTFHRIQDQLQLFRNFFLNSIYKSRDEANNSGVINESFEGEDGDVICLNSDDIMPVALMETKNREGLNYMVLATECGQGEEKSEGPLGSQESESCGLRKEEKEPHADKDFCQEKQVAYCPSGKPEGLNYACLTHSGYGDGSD

SMILES | Percentage inhibition NTRK2 (TRKB) (NTRK2 (TRKB)) | Percentage inhibition SYK (SYK) | Percentage inhibition CHUK (IKKalpha) (CHUK (IKKalpha)) | Percentage inhibition LCK (LCK) | Percentage inhibition JAK3 (JAK3) | Percentage inhibition KIT (KIT) | Percentage inhibition JAK2 (JAK2) | Percentage inhibition PTK2 (FAK) (PTK2 (FAK)) | Percentage inhibition AURKA (Aurora A) (AURKA (Aurora A)) | Percentage inhibition AURKB (Aurora B) (AURKB (Aurora B)) | Percentage inhibition TYK2 (TYK2) | Percentage inhibition ROS1 (ROS1) | Percentage inhibition PDGFRB (PDGFR beta) (PDGFRB (PDGFR beta)) | Percentage inhibition PDGFRA (PDGFR alpha) (PDGFRA (PDGFR alpha)) | Percentage inhibition NTRK1 (TRKA) (NTRK1 (TRKA)) | Percentage inhibition BTK (BTK) | Percentage inhibition PRKAA (PKA) (PRKAA (PKA)) | Percentage inhibition PLK1 (PLK1) | Percentage inhibition SRC (SRC) | Percentage inhibition CSK (CSK) | further results
CN1CCN(Cc2cccc(-c3cnc4[nH]cc(-c5cc(CNCCc6ccc(O)cc6)ccc5F)c4c3)c2)CC1 [Compound 1] | 61% | 4% | 43% | 50% | 42% | 8% | 19% | 22% | 14% | 41% | 5% | 64% | 37% | 57% | 53% | 12% | 8% | 4% | 19% | 7% | Percentage inhibition FLT1 (VEGFR1) (FLT1 (VEGFR1)): 53%; Percentage inhibition ALK (ALK): 45%; Percentage inhibition FGFR2 (FGFR2): 58%; Percentage inhibition ABL1 (ABL1): 38%; Percentage inhibition FLT4 (VEGFR3) (FLT4 (VEGFR3)): 64%; Percentage inhibition TEK (Tie2) (TEK (Tie2)): 13%; Percentage inhibition ZAP70 (ZAP70): 4%; Percentage inhibition MET (cMet) (MET (cMet)): 15%; Percentage inhibition TYRO3 (RSE) (TYRO3 (RSE)): 51%; Percentage inhibition CSF1R (FMS) (CSF1R (FMS)): 62%; Percentage inhibition YES1 (YES1): 18%; Percentage inhibition ROCK2 (ROCK2): 16%; Percentage inhibition MERTK (cMER) (MERTK (cMER)): 98%; Percentage inhibition NUK1 (ARK5) (NUK1 (ARK5)): 74%; Percentage inhibition RET (RET): 84%; Percentage inhibition KDR (VEGFR2) (KDR (VEGFR2)): 85%
CN1CCN(Cc2cccc(-c3cnc4[nH]cc(-c5cc(CNCc6ccccc6)ccc5F)c4c3)c2)CC1 [Compound 2] | 103% | 11% | 14% | 63% | 18% | 49% | 23% | 33% | 11% | 20% | 5% | 77% | 30% | 31% | 96% | 10% | 6% | 4% | 16% | 12% | Percentage inhibition FLT1 (VEGFR1) (FLT1 (VEGFR1)): 19%; Percentage inhibition ALK (ALK): 12%; Percentage inhibition FGFR2 (FGFR2): 25%; Percentage inhibition ABL1 (ABL1): 16%; Percentage inhibition FLT4 (VEGFR3) (FLT4 (VEGFR3)): 33%; Percentage inhibition TEK (Tie2) (TEK (Tie2)): 88%; Percentage inhibition ZAP70 (ZAP70): 4%; Percentage inhibition MET (cMet) (MET (cMet)): 92%; Percentage inhibition TYRO3 (RSE) (TYRO3 (RSE)): 67%; Percentage inhibition CSF1R (FMS) (CSF1R (FMS)): 41%; Percentage inhibition YES1 (YES1): 15%; Percentage inhibition ROCK2 (ROCK2): 5%; Percentage inhibition MERTK (cMER) (MERTK (cMER)): 96%; Percentage inhibition NUK1 (ARK5) (NUK1 (ARK5)): 16%; Percentage inhibition RET (RET): 48%; Percentage inhibition KDR (VEGFR2) (KDR (VEGFR2)): 68%
CN1CCN(Cc2cccc(-c3cnc4[nH]cc(-c5cc(NC(=O)Nc6ccccc6)ccc5F)c4c3)c2)CC1 [Compound 3] | 94% | 8% | 4% | 42% | 13% | 15% | 13% | 24% | 14% | 38% | 7% | 18% | 19% | 21% | 69% | 10% | 7% | 6% | 10% | 8% | Percentage inhibition FLT1 (VEGFR1) (FLT1 (VEGFR1)): 19%; Percentage inhibition ALK (ALK): 17%; Percentage inhibition FGFR2 (FGFR2): 37%; Percentage inhibition ABL1 (ABL1): 22%; Percentage inhibition FLT4 (VEGFR3) (FLT4 (VEGFR3)): 37%; Percentage inhibition TEK (Tie2) (TEK (Tie2)): 27%; Percentage inhibition ZAP70 (ZAP70): 5%; Percentage inhibition MET (cMet) (MET (cMet)): 16%; Percentage inhibition TYRO3 (RSE) (TYRO3 (RSE)): 19%; Percentage inhibition CSF1R (FMS) (CSF1R (FMS)): 26%; Percentage inhibition YES1 (YES1): 11%; Percentage inhibition ROCK2 (ROCK2): 9%; Percentage inhibition MERTK (cMER) (MERTK (cMER)): 75%; Percentage inhibition NUK1 (ARK5) (NUK1 (ARK5)): 14%; Percentage inhibition RET (RET): 23%; Percentage inhibition KDR (VEGFR2) (KDR (VEGFR2)): 55%
